Results: patent publication US9328112B2, “Tetracyclic CDK9 kinase inhibitors” (AbbVie Inc., priority 2014, dated 2016)

Assays:
CDK9/Cyclin T1 = CDK9/Cyclin T1 (Homo sapiens (Human), UniProt P50750); test: CDK9 enzyme assay (LANCE ULight TR-FRET kinase assay); type: biochemical; conditions: 1000 μM ATP, 100 nM ULight MBP, kinase reaction 1 hour
Summary of the method: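 Human CDK9/Cyclin T1 phosphorylating 100 nM ULight-MBP with 1000 μM ATP in HEPES/MgCl2 buffer, 1 h reaction. Stopped with 20 mM EDTA plus 0.5 nM Eu anti-phospho-MBP antibody, incubated 1 h, read by TR-FRET (ex 320 nm, em 615/665 nm).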

H929 cells = test: Cell viability assay (Cell TiterGlo); type: cell-based; conditions: Homo sapiens, NCI-H929, 24 hours at 37° C., Cell TiterGlo luminescence
Description: The cell viability assay was performed using H929 cells. Cells were seeded in 96-well plates at 10,000 cells/well and, after overnight incubation, treated with compounds in a dose response of 3-fold dilutions from 10 μM to 0.005 μM ([…], 0.1% final DMSO concentration). After 24 hours at 37° C., cell viability was measured using Cell TiterGlo reagent (Promega) with a luminescence reader.

Sequence of CDK9/Cyclin T1 (P50750 whole entry): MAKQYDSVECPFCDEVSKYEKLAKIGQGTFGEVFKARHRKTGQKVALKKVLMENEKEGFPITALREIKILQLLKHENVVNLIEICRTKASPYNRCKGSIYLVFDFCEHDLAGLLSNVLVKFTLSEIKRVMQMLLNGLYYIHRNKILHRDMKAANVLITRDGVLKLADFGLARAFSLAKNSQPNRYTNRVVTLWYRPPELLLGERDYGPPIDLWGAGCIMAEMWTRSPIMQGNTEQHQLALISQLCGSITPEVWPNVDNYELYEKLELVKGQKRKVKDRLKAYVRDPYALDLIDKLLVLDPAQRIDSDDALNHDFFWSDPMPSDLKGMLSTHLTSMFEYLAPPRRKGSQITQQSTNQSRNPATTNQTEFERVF
Sequence of CDK9/Cyclin T1 (O60563 whole entry partner): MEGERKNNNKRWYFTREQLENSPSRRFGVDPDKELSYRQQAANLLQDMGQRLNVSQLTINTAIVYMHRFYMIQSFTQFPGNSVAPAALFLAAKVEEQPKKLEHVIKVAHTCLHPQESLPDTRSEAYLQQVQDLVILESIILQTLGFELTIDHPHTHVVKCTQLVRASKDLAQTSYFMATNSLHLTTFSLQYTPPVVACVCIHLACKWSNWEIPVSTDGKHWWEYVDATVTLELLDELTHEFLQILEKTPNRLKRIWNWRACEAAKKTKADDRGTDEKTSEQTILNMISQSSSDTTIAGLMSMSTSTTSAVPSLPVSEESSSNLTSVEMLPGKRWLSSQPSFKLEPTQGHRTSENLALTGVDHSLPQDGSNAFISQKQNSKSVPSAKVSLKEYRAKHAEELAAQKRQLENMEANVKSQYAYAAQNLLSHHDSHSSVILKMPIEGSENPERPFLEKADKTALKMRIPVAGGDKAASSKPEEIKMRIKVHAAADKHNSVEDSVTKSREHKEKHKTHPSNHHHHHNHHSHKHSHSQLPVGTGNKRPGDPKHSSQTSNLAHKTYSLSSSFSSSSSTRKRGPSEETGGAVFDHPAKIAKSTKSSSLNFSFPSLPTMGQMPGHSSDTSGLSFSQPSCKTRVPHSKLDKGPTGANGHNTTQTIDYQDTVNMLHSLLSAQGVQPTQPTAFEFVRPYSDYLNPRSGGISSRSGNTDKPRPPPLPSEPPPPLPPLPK

| SMILES | IC50 (CDK9/Cyclin T1) | IC50 (H929 cells) |
| --- | --- | --- |
| CNC(=O)C1CC=C(c2[nH]c3nccc4c3c2CN(C)c2ccc(F)cc2-4)CC1 (stereo not shown) [Example 52, 4-(10-fluoro-7-methyl-6,7-dihydro-4H-3,4,7-triazadibenzo[cd,f]azulen-5-yl)-N-methylcyclohex-3-ene-1-carboxamide] | 63 nM | 150 nM |
| CN1Cc2c(C3=CCN(CC(=O)N(CCO)CCO)CC3)[nH]c3nccc(c23)-c2cc(F)ccc21 [Example 53, 2-[4-(10-fluoro-7-methyl-6,7-dihydro-4H-3,4,7-triazadibenzo[cd,f]azulen-5-yl)-3,6-dihydropyridin-1(2H)-yl]-N,N-bis(2-hydroxyethyl)acetamide] | 57 nM | 47 nM |
| CN1Cc2c(C3=CCN(CC(=O)N4CC(F)(F)C4)CC3)[nH]c3nccc(c23)-c2cc(F)ccc21 [Example 54, 1-(3,3-difluoroazetidin-1-yl)-2-[4-(10-fluoro-7-methyl-6,7-dihydro-4H-3,4,7-triazadibenzo[cd,f]azulen-5-yl)-3,6-dihydropyridin-1(2H)-yl]ethanone] | 63 nM | 92 nM |
| CN(C)C(=O)CN1[C@H]2CC[C@@H]1C=C(c1[nH]c3nccc4c3c1CN(C)c1ccc(F)cc1-4)C2 [Example 55, 2-[(1R,5S)-3-(10-fluoro-7-methyl-6,7-dihydro-4H-3,4,7-triazadibenzo[cd,f]azulen-5-yl)-8-azabicyclo[3.2.1]oct-2-en-8-yl]-N,N-dimethylacetamide] | 160 nM | 150 nM |
| CN1Cc2c(C3=C[C@H]4CC[C@@H](C3)N4S(C)(=O)=O)[nH]c3nccc(c23)-c2cc(F)ccc21 [Example 56, 10-fluoro-7-methyl-5-[(1R,5S)-8-(methylsulfonyl)-8-azabicyclo[3.2.1]oct-2-en-3-yl]-6,7-dihydro-4H-3,4,7-triazadibenzo[cd,f]azulene] | 96 nM | 680 nM |
| CNC(=O)N1[C@H]2CC[C@@H]1C=C(c1[nH]c3nccc4c3c1CN(C)c1ccc(F)cc1-4)C2 [Example 57, (1R,5S)-3-(10-fluoro-7-methyl-6,7-dihydro-4H-3,4,7-triazadibenzo[cd,f]azulen-5-yl)-N-methyl-8-azabicyclo[3.2.1]oct-2-ene-8-carboxamide] | 200 nM | 2200 nM |
| CN1Cc2c(C3=C[C@H]4CC[C@@H](C3)N4CC(=O)O)[nH]c3nccc(c23)-c2cc(F)ccc21 [Example 58, [(1R,5S)-3-(10-fluoro-7-methyl-6,7-dihydro-4H-3,4,7-triazadibenzo[cd,f]azulen-5-yl)-8-azabicyclo[3.2.1]oct-2-en-8-yl]acetic acid] | 170 nM | 1400 nM |
| CN1Cc2c(C3=CC4CNCC4C3)[nH]c3nccc(c23)-c2cc(F)ccc21 (stereo not shown) [Example 59, 10-fluoro-5-(1,2,3,3a,4,6a-hexahydrocyclopenta[c]pyrrol-5-yl)-7-methyl-6,7-dihydro-4H-3,4,7-triazadibenzo[cd,f]azulene] | 88 nM | 190 nM |
| CN1Cc2c(-c3cccnc3)[nH]c3nccc(c23)-c2cc(F)ccc21 [Example 60, 10-fluoro-7-methyl-5-(pyridin-3-yl)-6,7-dihydro-4H-3,4,7-triazadibenzo[cd,f]azulene] | 75 nM | 320 nM |
| CCOC(=O)C1CC=C(c2[nH]c3nccc4c3c2CN(C)c2ccc(F)cc2-4)CC1 (stereo not shown) [Example 61, ethyl 4-(10-fluoro-7-methyl-6,7-dihydro-4H-3,4,7-triazadibenzo[cd,f]azulen-5-yl)cyclohex-3-ene-1-carboxylate] | 400 nM | 1200 nM |
| CN1Cc2c(C3=C[C@H]4CC[C@@H](C3)N4)[nH]c3nccc(c23)-c2cc(F)ccc21 [Example 62, 5-[(1R,5S)-8-azabicyclo[3.2.1]oct-2-en-3-yl]-10-fluoro-7-methyl-6,7-dihydro-4H-3,4,7-triazadibenzo[cd,f]azulene] | 46 nM | 150 nM |
| CN(CC(O)CO)C(=O)CN1CC=C(c2[nH]c3nccc4c3c2CN(C)c2ccc(F)cc2-4)CC1 (stereo not shown) [Example 63, N-(2,3-dihydroxypropyl)-2-[4-(10-fluoro-7-methyl-6,7-dihydro-4H-3,4,7-triazadibenzo[cd,f]azulen-5-yl)-3,6-dihydropyridin-1(2H)-yl]-N-methylacetamide] | 38 nM | 90 nM |
| CN1Cc2c(C3=CCN(CC(=O)N4CCC[C@@H]4CO)CC3)[nH]c3nccc(c23)-c2cc(F)ccc21 [Example 64, 2-[4-(10-fluoro-7-methyl-6,7-dihydro-4H-3,4,7-triazadibenzo[cd,f]azulen-5-yl)-3,6-dihydropyridin-1(2H)-yl]-1-[(2R)-2-(hydroxymethyl)pyrrolidin-1-yl]ethanone] | 62 nM | 94 nM |
| CN1Cc2c(C3=CCN(CC(=O)OC(C)(C)C)CC3)[nH]c3ncc(F)c(c23)-c2cc(F)ccc21 [Example 65, tert-butyl[4-(1,10-difluoro-7-methyl-6,7-dihydro-4H-3,4,7-triazadibenzo[cd,f]azulen-5-yl)-3,6-dihydropyridin-1(2H)-yl]acetate] | 100 nM | 140 nM |
| CN(C)C(=O)CN1CC=C(c2[nH]c3ncc(F)c4c3c2CN(C)c2ccc(F)cc2-4)CC1 [Example 66, 2-[4-(1,10-difluoro-7-methyl-6,7-dihydro-4H-3,4,7-triazadibenzo[cd,f]azulen-5-yl)-3,6-dihydropyridin-1(2H)-yl]-N,N-dimethylacetamide] | 44 nM | 10 nM |
| CN1Cc2c(C3=CCN(CC(=O)O)CC3)[nH]c3ncc(F)c(c23)-c2cc(F)ccc21 [Example 67, [4-(1,10-difluoro-7-methyl-6,7-dihydro-4H-3,4,7-triazadibenzo[cd,f]azulen-5-yl)-3,6-dihydropyridin-1(2H)-yl]acetic acid] | 48 nM | 130 nM |
| COCCS(=O)(=O)N1CC2C=C(c3[nH]c4nccc5c4c3CN(C)c3ccc(F)cc3-5)CC2C1 (stereo not shown) [Example 69, 10-fluoro-5-{2-[(2-methoxyethyl)sulfonyl]-1,2,3,3a,4,6a-hexahydrocyclopenta[c]pyrrol-5-yl}-7-methyl-6,7-dihydro-4H-3,4,7-triazadibenzo[cd,f]azulene] | 80 nM | 95 nM |
| CN1Cc2c(C3=CCN(CC(=O)N4CCC[C@H]4CO)CC3)[nH]c3ncc(F)c(c23)-c2cc(F)ccc21 [Example 70, 2-[4-(1,10-difluoro-7-methyl-6,7-dihydro-4H-3,4,7-triazadibenzo[cd,f]azulen-5-yl)-3,6-dihydropyridin-1(2H)-yl]-1-[(2S)-2-(hydroxymethyl)pyrrolidin-1-yl]ethanone] | 86 nM | 5 nM |
| CN1Cc2c(C3=CCN(CC(=O)N4CC(O)C4)CC3)[nH]c3ncc(F)c(c23)-c2cc(F)ccc21 [Example 72, 2-[4-(1,10-difluoro-7-methyl-6,7-dihydro-4H-3,4,7-triazadibenzo[cd,f]azulen-5-yl)-3,6-dihydropyridin-1(2H)-yl]-1-(3-hydroxyazetidin-1-yl)ethanone] | 79 nM | 21 nM |
| CN1Cc2c(C3=CCN(CC(=O)N4CC[C@H](O)C4)CC3)[nH]c3ncc(F)c(c23)-c2cc(F)ccc21 [Example 73, 2-[4-(1,10-difluoro-7-methyl-6,7-dihydro-4H-3,4,7-triazadibenzo[cd,f]azulen-5-yl)-3,6-dihydropyridin-1(2H)-yl]-1-[(3S)-3-hydroxypyrrolidin-1-yl]ethanone] | 52 nM | 20 nM |
